Assay results published in patent publication US6653287B1, “Use of leukemia inhibitory factor and endothelin antagonists” (Genentech, Inc., priority 1995, dated 2003).
Square brackets hold non-standard residues; d marks the D form. Peptide text beside a SMILES is read from it.

Columns and labels:
[1] = tested on: neonatal rat cardiac ventricular myocytes; test: Myocyte morphology and contractile fiber organization (phallacidin f-actin stain, confocal microscopy); type: cell-based; settings: for organization of contractile fibers (f-actin): 48 hours exposure, fluorescent phallacidin stain
Description: (§1) Neonatal rat cardiac ventricular myocytes were cultured in 96-well plates 35 as described by Pennica et al., supra. Briefly, myocytes were isolated from one-day-old Sprague-Dawley rats by a series of collagenase digestions followed by Percoll™ gradient purification. Iwaki et al., J Biol Chem., 265: 13809-13817 (1990). The myocytes, which band at the lower gradient interface, were collected, washed twice, and re-suspended in D-MEM/F12 medium with 15% (vol/vol) fetal calf serum. The cells were diluted into serum-free D-MEM/F12 medium supplemented with 10 μg/mL transferrin, 1 μg/mL insulin, 1 μg/mL aprotinin, 2-mmol/L glutamine, 100 U/mL penicillin G, and 100 μg/mL streptomycin (assay medium) to a final density of 7.5×10^4 cells per mL. The final serum concentration of this assay medium with cells was <0.1%. Myocytes were plated 200 μL per well in 96-well, flat-bottomed plates that had previously been coated with D-MEM/F12 medium with 4% (vol/vol) fetal calf serum for 8 hours at 37° C. After 24 hours at 37° C. in 5% CO2, test substances were added. Forty-eight hours after the test substances were added, the cells were fixed and stained with 0.5% (wt/vol) crystal violet in methanol and formaldehyde, and the hypertrophy was scored on a scale of 1 to 7 by microscopic evaluation. Untreated cells were used as the negative control and scored as a 3. Toxic effects were scored from 0 to 2. The positive control in each assay was 100 μmol/L phenylephrine, which was scored as 7.
The myocytes were plated in 4-chamber Lab Tek™ glass chamber slides pre-coated for 8 hours with 4% (vol/vol) fetal calf serum in D-MEM/F12 medium and cultured for 24 hours. They were exposed to test substances for 48 hours and then washed 3× in phosphate buffered saline (PBS) and fixed in 95% (vol/vol) ethanol for 15 minutes. The slides were then washed 3×0 in PBS with 0.1% (vol/vol) Tween-20™ surfactant, blocked for 30 minutes with 1% (wt/vol) BSA in PBS with 0.1% Tween-20™ surfactant, and incubated with phallacidin conjugated to BODIPY FL™ brand reagent (10 μg/mL in 1% BSA in PBS) (Molecular Probes, Eugene Oreg.) for 40 minutes to stain the f-actin present in the contractile fibers. The slides were then washed 3× with PBS in 0.1% Tween-20™ surfactant. Images of the phallacidin-stained cells were acquired on a Ultima™ laser-scanning confocal microscope (Meridian Instruments, Okemos, Mich.). A 1.4 NA 60×™ oil-immersion objective was utilized coupled with 488-nm excitation, with the resulting fluorescence measured following a 525-nm long-pass filter. […] The final images were constructed with a maximum fluorescence projection algorithm by compressing the multiple z or depth images into a single two-dimensional representation.

[2] = tested on: neonatal rat cardiac ventricular myocytes; test: Neonatal rat cardiac myocyte hypertrophy assay (crystal violet stain, microscopic hypertrophy score); type: cell-based
From the text: A miniaturized assay is preferably used to assay the suspected antagonist(s) for hypertrophy-inhibiting activity. In this assay the medium used allows the cells to survive at a low plating density without serum. By plating directly into this medium, washing steps are eliminated so that fewer cells are removed. The plating density is important: many fewer cells and the survival is reduced; many more cells and the myocytes begin to self-induce hypertrophy.
The preferred hypertrophy assay comprises:
(a) pre-coating the wells of 96-well tissue culture plates with a medium containing calf serum, preferably D-MEM/F-12 medium containing 4% fetal calf serum, wherein preferably the wells are incubated with the medium for about eight hours at about 37°C.;
(c) plating a suspension of myocytes in the inner 60 wells at 7.5×10^4 cells per mL in D-MEM/F-12 medium supplemented with insulin, transferrin, and aprotinin;
(d) culturing the myocytes for at least 24 hours in the presence of LIF or endothelin;
(e) adding the test substance;
(f) culturing the cells with the test substance (preferably for about 24-72 hours, more preferably for about 48 hours); and
(g) evaluating hypertrophy, preferably after crystal violet stain, by microscopic examination.
as §1

[3] = tested on: neonatal rat cardiac ventricular myocytes; settings: neonatal rat cardiac myocytes in culture; Pennica et al. 1995; cited from earlier work

Which morphology of myocytes ([1]; 48-hour exposure to maximal concentrations) does the source give for `CC[C@H](C)[C@H](NC(=O)[C@H](CC(=O)O)NC(=O)[C@H](CC(C)C)NC(=O)[C@H](Cc1c[nH]cn1)NC(=O)[C@@H]1CSSC[C@H](N)C(=O)N[C@@H](CO)C(=O)N[C@H]2CSSC[C@H](NC(=O)[C@H](CCC(=O)O)NC(=O)[C@H](CCCCN)NC(=O)[C@H](CC(=O)O)NC(=O)[C@H](CCSC)NC(=O)[C@H](CC(C)C)NC(=O)[C@H](CO)NC(=O)[C@H](CO)NC2=O)C(=O)N[C@@H](C(C)C)C(=O)N[C@@H](Cc2ccc(O)cc2)C(=O)N[C@@H](Cc2ccccc2)C(=O)N1)C(=O)N[C@H](C(=O)N[C@@H](Cc1c[nH]c2ccccc12)C(=O)O)[C@@H](C)CC` [endothelin-1] here?
Its morphology of myocytes is “more compact with no processes”.

And the “organization of contractile fibers (f-actin)” value [1]?
Its value is “not organized in parallel, had a tangled appearance, and did not show prominent banding”.

What about the “hypertrophic response (myocyte cell size and ANP production)” value ([2]; purified factors, even at nanomolar concentrations) of the same molecule?
Its value is “partial hypertrophic responses”.

What does the source list for `CNC[C@H](O)c1cccc(O)c1` [phenylephrine]?
organization of contractile fibers (f-actin) [1]: organized in parallel arrays with prominent banding; hypertrophy score (positive control) ([2]; 100 μmol/L phenylephrine, scale 1 to 7, untreated 3): 7

What does the source list for `CC(C)C[C@@H]1NC(=O)[C@@H](C(C)C)NC(=O)[C@@H]2CCCN2C(=O)[C@@H](CC(=O)O)NC(=O)[C@@H](Cc2c[nH]c3ccccc23)NC1=O` [BQ-123] (cyclo(L[dW][dD]P[dV]))?
morphology of myocytes treated with NCM plus inhibitor ([1]; NCM and BQ-123 or LIF Mab): resembled those treated with purified LIF; inhibition of NCM hypertrophy activity ([2]; FIG. 3, 100 μmol/L BQ-123, 50 μg/mL LIF Mab): partially inhibited; blocking of hypertrophy activity induced by endothelin-1 ([2]; FIG. 4A/5A, BQ-123 1-100 μmol/L, LIF Mab 0.5-50 μg/mL): blocked; blocking/neutralization of hypertrophy activity induced by mouse LIF ([2]; FIG. 4B/5B, BQ-123 1-100 μmol/L, LIF Mab 0.5-50 μg/mL): not; blocking of hypertrophy activity induced by phenylephrine ([2]; FIG. 4C/5C, BQ-123 1-100 μmol/L, LIF Mab 0.5-50 μg/mL): not; blocking of hypertrophy activity induced by CT-1 ([2]; FIG. 4D/5D, BQ-123 1-100 μmol/L, LIF Mab 0.5-50 μg/mL): not; effect on myocyte morphology by itself ([2]; inhibitor alone, no inducer): no effect

B1: CT-1: cardiotrophin-1, member of the family of proteins that bind to GH/cytokine receptors (protein, UniProt Q16619 1-201, looked up)
Cardiotrophin-1: MSRREGSLEDPQTDSSVSLLPHLEAKIRQTHSLAHLLTKYAEQLLQEYVQLQGDPFGLPSFSPPRLPVAGLSAPAPSHAGLPVHERLRLDAAALAALPPLLDAVCRRQAELNPRAPRLLRRLEDAARQARALGAAVEALLAALGAANRGPRAEPPAATASAASATGVFPAKVLGLRVCGLYREWLSRTEGDLGQLLPGGSA
With B1 as the molecule, how does the “hypertrophy activity among proteins that bind GH/cytokine receptors” value [3] read?
Its value is “most potent hypertrophy activity”.
